The record followed here is patent publication US20230277483A1, “COMPOSITIONS AND METHODS TO TREAT INFLAMMATION” (University of Iowa Research Foundation, priority 2022, published 2023).

In the assay the test system is DIO-mice (C57BL/6J on 60% kCal high-fat diet). As to the kind of experiment: Diet-induced obesity (DIO) mouse model, IP HCA. The assay is classed as in vivo. The protocol:
Animal care and experimental procedures were performed with approval from the University of Iowa's Institutional Animal Care and Use Committee. Animals received humane care in compliance with the Guide for the Care and Use of Laboratory Animals (National Academies Press, 2011) and with the Principles of Laboratory Animal Care formulated by the National Society for Medical Research. C57BL/6J mice (The Jackson Laboratory, 000664) were kept on a 12-hour light/dark cycle. Mice used to generate the DIO model were placed on a 60% kCal high-fat diet (HFD, Research Diets, D12492) immediately after weaning (i.e., at 3 weeks of age). After 16 weeks, lean and DIO-mice were intraperitoneally (IP) injected with 0.5 uM HCA or PBS control every other day for three weeks. Body weight was measured weekly. All tissues were harvested, frozen in liquid nitrogen, and kept at −80° C. until processed.
Total RNA was isolated using TRIzol reagent (Invitrogen, 15-596-018) and reverse transcribed into cDNA using the iScript cDNA synthesis kit (Bio-Rad, 1708890). Quantitative real-time RT-PCR analysis was performed using SYBR Green (Invitrogen, KCQS00).
Proteins were extracted from cells or tissues and subjected to SDS-polyacrylamide gel electrophoresis, as previously described (Yang et al., 2015). Membranes were incubated with anti-p-AKT (Ser473, Cell Signaling, 9271); anti-AKT1 (H-136, Santa Cruz, sc-8312) or anti-ACTB (H-300, Santa Cruz, sc-10731) at 1:1000 and then incubated with the appropriate secondary antibody conjugated with horseradish peroxidase (1:5000, Santa Cruz, sc-2005 or 1:5000, Cell Signaling Technology, 7074S). Signal was detected using the ChemiDoc Touch Imaging System (Bio-Rad), and densitometric analyses of western blot images were performed using Image Lab software (Bio-Rad).
For immunohistochemistry, tissues were fixed with 4% PFA and sectioned at 5 μm thick, followed by deparaffinization and rehydration processes. Tissue sections were stained using H&E. The images were observed under a Nikon microscope (10×).
Blood samples were centrifuged (4° C., 5000 g, 30 min) to obtain serum. Ten microliters of serum per sample were required for each index analysis. Serum alanine aminotransferase (ALT) and aspartate aminotransferase (AST) were measured by commercial kits. Serum IL-1β, IL-6 and free fatty acid (FFA) content were measured by ELISA (Il-1beta, Biolegend, Cat No. 432604; Il6) or a FFA fluorometric kit (Cayman Chemical, No. 700310), respectively, and then normalized to total protein (BCA).
Whole-body energy expenditure and body composition: Respiratory exchange ratio (RER) and locomotor activity were monitored using a Comprehensive Lab Animal Monitoring System (CLAMS, Columbus Instruments) at the Fraternal Order of Eagles Metabolic Phenotypic Core. Body composition was measured by using Bruker Minispecs (LF50).
Animals were fasted for 6 hours prior to ITT. Insulin tolerance was tested by measuring glucose concentration at different time points after intraperitoneal (IP) insulin injection (0.5 U/kg body weight; Humulin R) (Qian et al., 2018).

Regarding `O=C(O)CCCCCO` [HCA, 6-hydroxycaproic acid], for the setting “HCA vs HFD alone”, the “liver expression of Atg1 and Cd36” value is “increased expression”; the “liver expression of Hsl” value is given as “significantly reduced”. For the same compound, the “Serum free fatty acid (FFA) content” value (HCA vs HFD controls) was “reduced circulating levels”. Also, where the note is “HFD-fed, HCA-treated”, the fasting glucose entry is “HFD-mediated effects were reduced” and the “pAKT in eWAT (insulin signaling)” value was “increased pAKT”. Besides, where the note is “HFD-fed, HCA-treated, insulin 0.5 U/kg IP”, the “insulin tolerance (ITT)” value is reported as “HFD-mediated effects were reduced”. For the same compound, the lean mass entry (HFD, 0.5 uM HCA IP every other day for three weeks) is on record as “increased”. Further, where the note is “HFD, 0.5 uM HCA IP every other day for three weeks, vs HFD group”, the BW gain entry is “significantly reduced”. Further, for the setting “HFD, HCA”, the “eWAT RNA-seq: chemokine signaling and leukocyte migration” value is recorded as “downregulated”; the “eWAT RNA-seq: fatty acid metabolism, oxidation and absorption, PPAR gamma and AMPK signaling” value was “significantly increased”; the “liver Il1b transcript levels” value is reported as “significantly reduced”; the “serum IL-6, IL-1β, and leptin” value is given as “reduced”. For the same compound, where the note is “HFD, HCA-treated”, the “eWAT Adipoq and Ppargamma levels” value is “levels increased”; the “eWAT mRNA expression of Il6, Nos2 and Lep” value was “significantly reduced”; the “serum ALT levels” value is on record as “reduced”. For the same compound, under “HFD, HCA-treated vs HFD alone”, the “morphology of liver, iWAT and eWAT (H&E)” value is on record as “showed improvement”. For the setting “HFD, HCA-treated, CLAMS”, the “activity (locomotor)” value is on record as “increased activity” and the “respiratory exchange ratio (RER)” value is listed as “shift in respiratory exchange ratio (RER) towards increased carbohydrate metabolism”. The “eWAT Cd36 and Gpr81” value (compared to HFD controls) is given as “induced”. The “GPR137B, GPR176, GPR65, GPR85, and FABP7 in WAT (mRNA-seq)” value (obese mice treated with HCA) is “upregulation”. Under “obese mice, systemic administration of HCA”, the “PPARγ in white adipose tissues (WAT)” value was “upregulation”.
